The target in the experiment is T1, aldose reductase (Bos taurus, UniProt P16116).
T1 construct: partially purified aldose reductase enzyme obtained from calf lens; from tissue; host or cells: calf lens
Description: Inhibition of aldose reductase enzyme activity (procedure of U.S. Pat. No. 3,821,383, based on Hayman et al.). The note with it: partially purified aldose reductase from calf lens; for inhibition at 100 µM: 10^-4 M; for inhibition at 10 µM: 10^-5 M. Type of experiment: biochemical. An excerpt: The activity of the compounds of this invention as aldose reductase inhibitors and as agents for the treatment of diabetic cataracts may be determined by standard pharmacological tests. Such tests include, for example, measuring their ability to inhibit the enzyme activity of isolated aldose reductase, following the general procedure described in U.S. Pat. No. 3,821,383 and based on the procedure of Hayman et al., J. Biol. Chem. 240, 877 (1965). Based on the activity of the compounds of this invention in this test, it is expected that the compounds will also show activity as aldose reductase inhibitors when tested at suitable concentrations in other standard pharmaceutical tests, for example those measuring their ability to reduce or inhibit sorbitol accumulation in the sciatic nerve of acutely streptozotocinized (i.e. diabetic) rats; measuring their ability to reverse already-elevated sorbitol level in the sciatic nerve and lens of chronic streptozotocin-induced diabetic rats; measuring their ability to prevent or inhibit galacticol formation in the lens of acutely galatosemic rats; and measuring their ability to delay cataract formation and reduce the severity of lens opacities in chronic galactosemic rats.
The compounds produced in Examples 4, 7, 8, 9 and 10 were tested for their ability to reduce or inhibit aldose reductase enzyme activity, following the procedure described in U.S. Pat. No. 3,821,383 and based on the procedure of Hayman et. al., Journal of Biological Chemistry, 240, 877 (1965). The substrate employed was partially purified aldose reductase enzyme obtained from calf lens. The results obtained with each compound at a concentration of 10^-4 M and 10^-5 M are expressed as percent inhibition of enzyme activity.

The results in this text go back to US4283539A, “Isoquinoline acetic acids” (Pfizer Inc., priority 1979, dated 1981).

SMILES strings stand for the structures. Where a name gives a salt, the structure may show the parent alone.

The molecule `Cc1c(CC(=O)O)c2ccccc2c(=O)n1OCc1ccc(Cl)c(Cl)c1` [Example 4, 2-(3,4-Dichlorobenzyloxy)-1,2-dihydro-3-methyl-1-oxo-4-isoquinoline Acetic Acid] showed an inhibition at 100 µM of 90% and an inhibition at 10 µM of 77%.

In turn, `Cc1nc(OCc2ccc(Cl)c(Cl)c2)c2ccccc2c1CC(=O)O` [Example 8, 1-(3,4-Dichlorobenzyloxy)-3-methyl-4-isoquinoline Acetic Acid] came in with an inhibition at 100 µM of 83% and an inhibition at 10 µM of 95%.

`Cc1nc(N(C)Cc2ccc(Cl)cc2)c2ccccc2c1CC(=O)O` [Example 10, 1-(N-4-Chlorobenzyl-N-methyl-amino)-3-methyl-4-isoquinoline Acetic Acid Hydrochloride]: the inhibition at 100 µM came to 99% and at 10 µM the inhibition was 97%.

`Cc1nc(Oc2ccc(Cl)cc2)c2ccccc2c1CC(=O)O` [Example 9, 1-(4-Chlorophenoxy)-3-methyl-4-isoquinoline Acetic Acid] displayed an inhibition at 100 µM of 95% and an inhibition at 10 µM of 91%.

For the molecule `Cc1c(CC(=O)O)c2ccccc2c(=O)n1Cc1ccc(Cl)c(Cl)c1` [Example 7, 2-(3,4-Dichlorobenzyl)-1,2-dihydro-3-methyl-1-oxo-4-isoquinoline Acetic Acid], the inhibition at 100 µM came to 27%.

As usually defined, the inhibition is how much of the control response was suppressed. A higher inhibition goes with a strong effect.
